Values of other authors as cited in patent publication US20070264672A1, “DEVELOPMENT OF A NOVEL ASSAY FOR MGMT (METHYL GUANINE METHYL TRANSFERASE)” (priority 2006, published 2007).

Assays:
MGMT = biological target: T1, MGMT (Homo sapiens, UniProt P16455); details: human carcinoma HT-29 cell line, after exposure to the agent
T1 construct: endogenous in cells; host or cells: HT-29 (human carcinoma cell line)
T1 sequence (P16455 1-207): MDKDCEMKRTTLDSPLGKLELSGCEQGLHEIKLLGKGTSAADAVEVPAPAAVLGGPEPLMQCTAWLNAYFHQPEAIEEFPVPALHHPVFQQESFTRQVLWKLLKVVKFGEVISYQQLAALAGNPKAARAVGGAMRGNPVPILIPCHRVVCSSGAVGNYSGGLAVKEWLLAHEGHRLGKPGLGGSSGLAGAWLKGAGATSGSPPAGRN

[1] = tested on: human carcinoma HT-29 cell line; details: combined with BCNU

SMILES | duration of inhibition of MGMT activity (MGMT) [h] | potentiation of BCNU-induced cytotoxicity over that observed with BCNU alone [1] | effect on chemotherapy-induced cytotoxicity after depletion of MGMT (glioma cell lines)
CN(N=O)C(=O)N[C@H]1C(O)O[C@H](CO)[C@@H](O)[C@@H]1O (mixture of isomers) [streptozotocin] | 48 |  | 
Nc1nc(OCc2ccccc2)c2nc[nH]c2n1 [O^6—BG, O^6 benzylguanine] | 48 | three logs | enhanced
